The text below walks through data of article PMC9032385, “A2A Adenosine Receptor Antagonists: Are Triazolotriazine and Purine Scaffolds Interchangeable?” (Molecules, 2022).

For one assay, the target named is T1, human recombinant A1AR (Homo sapiens, UniProt P30542).
T1 construct: expressed in transfected cells; membrane preparation
T1 sequence (P30542 1-326): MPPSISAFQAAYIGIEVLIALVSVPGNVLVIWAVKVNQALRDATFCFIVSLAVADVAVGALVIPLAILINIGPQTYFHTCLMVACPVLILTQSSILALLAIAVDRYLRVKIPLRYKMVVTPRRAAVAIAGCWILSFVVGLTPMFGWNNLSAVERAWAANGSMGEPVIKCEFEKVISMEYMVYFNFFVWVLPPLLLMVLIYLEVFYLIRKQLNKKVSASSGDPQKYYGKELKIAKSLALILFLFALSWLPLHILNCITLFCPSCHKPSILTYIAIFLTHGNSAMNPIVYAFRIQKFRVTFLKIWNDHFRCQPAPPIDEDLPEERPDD
In words: Radioligand binding at human A1AR ([3H]CCPA displacement, CHO cell membranes). The note with it: displacement of [3H]CCPA, n = 3–5, means ± standard errors. On the procedure: The affinities of the newly synthesized compounds 7–13 and 17–21 were determined in binding studies at human recombinant A1, A2A, and A3 ARs, stably transfected in Chinese hamster ovary (CHO) cells, using [^3H]CCPA (2-chloro-N^6-cyclopentylAdo), [^3H]NECA (5′-N-ethylcarboxamidoAdo), and [^3H]HEMADO (2-hexynyl-N^6-methylAdo) as respective radioligands. Most of the compounds were also evaluated at A2BARs in a functional study using the GloSensor cAMP assay. The results are reported in Table 1 as Ki values in nM (± standard errors). In the case of A2BARs, Ki-values were calculated from IC50-values determined by the inhibition of NECA-stimulated adenylyl cyclase activity.
Cell culture: The Chinese hamster ovary cells (CHO) stably transfected with the desired ARs were grown in DMEM/F12 medium containing 10% FBS (fetal bovine serum), 100 U/mL penicillin, 100 µg/mL streptomycin, 2.5 μg/mL amphotericin B, 1 mM sodium pyruvate, 0.1 mg/mL genetecina (G418), and incubated at 37 °C in a gaseous mixture of 5% CO2: […].
Preparation of membranes: Cell membranes for binding assays were prepared mechanically detaching the cells from the petri and suspending them in a cold hypotonic buffer (5 mM Tris/HCl, 2 mM EDTA, pH 7.4). The cell suspension was homogenized (Ultra-Turrax, 2 × 15 s at maximum speed) and the homogenate centrifuged for 10 min (4 °C) to 1000× g. The supernatant was subsequently centrifuged for 30 min (4 °C) at 100,000× g and the pellet containing the membrane proteins was re-suspended in a specific buffer for each receptor subtype (A1: 50 mM Tris/HCl, pH 7.4; A2A: 50 mM Tris/HCl, 10 mM MgCl2, pH 7.4; A3: 50 mM Tris/HCl, 10 mM MgCl2, 1 mM EDTA, pH 8.25). The amount of the protein suspension was determined according to the […] using the BCA Protein Assay Kit (Pierce), frozen in liquid nitrogen, and stored at −80 °C.
(§1) Binding assays: The dissociation constants of the radioligand (KD) were calculated through saturation assays, while the dissociation constants of the compounds under study (Ki) were determined by competition experiments. All binding data were calculated by nonlinear regression curves using the software GraphPad Prism 5 (GraphPad Software, San Diego, CA, USA). The increasing concentrations of the radioligand saturation binding ([^3H]-CCPA for the A1 receptor subtype, [^3H]-NECA for the A2A receptor subtype, and [^3H]-HEMADO for the A3 receptor) subtype were incubated in a total volume of 250 μL containing 0.2 U/mL of Ado deaminase (ADA) and 12 micrograms of membrane proteins in the specific buffer. In competition experiments for the A1 receptor subtype, each compound was added at increasing concentrations, to the well containing 1 nM of [^3H]-CCPA, to a final volume of 200 μL. The samples were left to incubate for 3 h at room temperature, filtered in a filter 96-well plate (UniFilter GF/C, Perkin-Elmer Life and Analytical Science, Boston, MA) using the FilterMate Cell Harvester (Perkin-Elmer), and washed 3 times with cold distilled water. After drying the filter plate at 40 °C for 30′, they 20 μL of scintillating liquid (Microscint-20, Perkin-Elmer) was added to each well, and then the radioactivity was quantized with the MicroBeta2 Plate Counter (Perkin-Elmer). The conditions for binding experiments at A2A and A3 receptor subtypes were essentially the same as for the A1AR using [^3H]-NECA (N-ethylcarboxyamideAdo) at a concentration of 10 nM and [^3H]-HEMADO (2-(1-hexyne)-N^6-methylAdo) at a concentration of 1 nM as radioligands, respectively. The samples were incubated with 12 micrograms of protein for 3 h at room temperature and filtered as described above.
(§2) The non-specific binding was determined in the presence of 1 mM theophylline for the A1AR, or 100 µM R-PIA (N^6-(1-methyl-2-phenylethyl)Ado) for the A2A and A3 receptors.

The target in a further assay is T2, human recombinant A2AAR (Homo sapiens, UniProt P29274).
T2 construct: expressed in transfected cells; membrane preparation
Kind of assay: Radioligand binding at human A2AAR ([3H]NECA displacement, CHO cell membranes). On the procedure: Most of the compounds were also evaluated at A2BARs in a functional study using the GloSensor cAMP assay. […] In the case of A2BARs, Ki-values were calculated from IC50-values determined by the inhibition of NECA-stimulated adenylyl cyclase activity.
Preparation of membranes: Cell membranes for binding assays were prepared mechanically detaching the cells from the petri and suspending them in a cold hypotonic buffer (5 mM Tris/HCl, 2 mM EDTA, pH 7.4). The cell suspension was homogenized (Ultra-Turrax, 2 × 15 s at maximum speed) and the homogenate centrifuged for 10 min (4 °C) to 1000× g. […] The amount of the protein suspension was determined according to the […] using the BCA Protein Assay Kit (Pierce), frozen in liquid nitrogen, and stored at −80 °C.
as §1, §2

T2 sequence (P29274 whole entry): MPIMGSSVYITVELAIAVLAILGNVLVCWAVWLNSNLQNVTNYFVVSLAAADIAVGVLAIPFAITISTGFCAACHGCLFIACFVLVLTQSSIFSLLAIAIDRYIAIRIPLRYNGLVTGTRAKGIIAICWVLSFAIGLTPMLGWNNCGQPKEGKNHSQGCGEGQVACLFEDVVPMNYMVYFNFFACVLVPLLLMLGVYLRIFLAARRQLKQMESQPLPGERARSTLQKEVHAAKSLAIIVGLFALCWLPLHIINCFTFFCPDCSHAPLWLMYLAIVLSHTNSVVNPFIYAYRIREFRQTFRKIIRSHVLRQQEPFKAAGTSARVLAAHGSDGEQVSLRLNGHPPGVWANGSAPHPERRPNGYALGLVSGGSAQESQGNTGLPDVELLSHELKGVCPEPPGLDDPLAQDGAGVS

For `CCn1c(-c2ccco2)nc2c(N)nc(NCCc3ccc(O)cc3)nc21` [compound 13, 4-(2-((6-Amino-9-ethyl-8-(furan-2-yl)-9H-purin-2-yl)amino)ethyl)phenol], the inhibition constant (Ki) on human recombinant A1AR worked out at 51 nM. Also, the Ki on human recombinant A2AAR (displacement of [3H]NECA, CHO membranes, n = 3–5, means ± standard errors) was found to be 1.8 nM. On human recombinant A2AAR (ratio of Ki values), the “selectivity A1/A2A” value was 28, the “selectivity A2B/A2A” value is given as 796 and the “selectivity A3/A2A” value is on record as 7.

One may read the Ki as a measure of affinity in units of concentration, obtained from inhibition or displacement.
